Laboratory results taken from patent US8871756B2 (Hoffmann-La Roche Inc., priority 2011, dated 2014).

What follows are molecules tested on RSV Long strain (assay: Viral cytopathic effect (CPE) assay, anti-RSV activity). Conditions: human respiratory syncytial virus, 144 h, RSV Long strain (ATCC); cell viability after 6 days, Cell Counting kit-8.
Type: cell-based, Respiratory Syncytial Virus
Summary of the method: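 Cells (6×10^3/well, DMEM with 10% FBS) were infected next day with RSV Long strain, at a dose giving approximately 80–90% CPE, alongside serial half-log compound dilutions. Viability was read after 6 days by CCK-8 absorbance at 450 nm (reference 630 nm), and EC50 was derived from it.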
NC1(CNc2cc(N3CCS(=O)(=O)c4ccccc4C3)nc3ccc(CO)cc23)COC1 [Example 3-23, [4-{[(3-Aminooxetan-3-yl)methyl]amino}-2-(1,1-dioxido-2,3-dihydro-1,4-benzothiazepin-4(5H)-yl)quinolin-6-yl]methanol] was tested, and the EC50 was 0.002 µM. In the case of Cc1ccc2nc(N3CCS(=O)(=O)c4ccccc4C3)cc(OC3CCNC3)c2c1 (centres unmarked) [Example 98-1, 4-[6-Methyl-4-(pyrrolidin-3-yloxy)quinolin-2-yl]-2,3,4,5-tetrahydro-1,4-benzothiazepine 1,1-dioxide], the EC50 is reported as 0.778 µM. NCCNc1cc(N2CCCc3ccc(C(=O)O)cc3C2)nc2ccccc12 [Example 118-25, 2-{4-[(2-Aminoethyl)amino]quinolin-2-yl}-2,3,4,5-tetrahydro-1H-2-benzazepine-8-carboxylic acid] gave an EC50 of 7.62 µM. O=S1(=O)CCN(c2cc(NCC3(NCc4ccccc4)COC3)c3cc(Cl)ccc3n2)Cc2cc(F)ccc21 [Example 3-2, N-{[3-(Benzylamino)oxetan-3-yl]methyl}-6-chloro-2-(7-fluoro-1,1-dioxido-2,3-dihydro-1,4-benzothiazepin-4(5H)-yl)quinolin-4-amine] gave an EC50 of 3.05 µM. With Cc1ccc2nc(N3CCSc4ccccc4C3)nc(N)c2c1 [Example 58, 2-(2,3-Dihydro-1,4-benzothiazepin-4(5H)-yl)-6-methylquinazolin-4-amine] the EC50 was 2.77 µM. Cc1ccc2nc(N3CCS(=O)(=O)c4ccccc4C3)cc(NC(=O)CCN)c2c1 [Example 42-2, N-[2-(1,1-Dioxido-2,3-dihydro-1,4-benzothiazepin-4(5H)-yl)-6-methylquinolin-4-yl]-beta-alaninamide] was tested, and the EC50 was 0.037 µM. With NCCCNc1cc(N2CCS(=O)(=O)c3ccccc3C2)nc2ccc(OC(F)(F)F)cc12 [Example 17-1, N-[2-(1,1-Dioxido-2,3-dihydro-1,4-benzothiazepin-4(5H)-yl)-6-(trifluoromethoxy)quinolin-4-yl]propane-1,3-diamine] the EC50 was 5.54 µM. Cc1ccc2nc(N3CCS(=O)(=O)c4ccccc4C3)cc(NCC3CCCN3)c2c1 (centres unmarked) [Example 3-35, 2-(1,1-Dioxido-2,3-dihydro-1,4-benzothiazepin-4(5H)-yl)-6-methyl-N-(pyrrolidin-2-ylmethyl)quinolin-4-amine] was tested, and the EC50 was 0.013 µM. For COC(C)(C)C(=O)Nc1cc(N2CCS(=O)(=O)c3ccccc3C2)nc2ccc(C)cc12 [Example 41, N-[2-(1,1-Dioxido-2,3-dihydro-1,4-benzothiazepin-4(5H)-yl)-6-methylquinolin-4-yl]-2-methoxy-2-methylpropanamide], the EC50 was 2.63 µM. Cc1ccc2nc(N3CCS(=O)(=O)c4ccccc4C3)cc(NCC3(CN)CC(F)(F)C3)c2c1 [Example 3-12, N-{[1-(Aminomethyl)-3,3-difluorocyclobutyl]methyl}-2-(1,1-dioxido-2,3-dihydro-1,4-benzothiazepin-4(5H)-yl)-6-methylquinolin-4-amine] showed an EC50 of 1.65 µM. Cc1ccc2nc(N3CCS(=O)(=O)c4ccccc4C3)cc(N3CCC(N)CC3)c2c1 [Example 9-27, 1-[2-(1,1-Dioxido-2,3-dihydro-1,4-benzothiazepin-4(5H)-yl)-6-methylquinolin-4-yl]piperidin-4-amine] was tested, and the EC50 was 0.797 µM. With NCCNc1cc(N2CCCc3cc(Br)ccc3C2)nc2ccc(Cl)cc12 [Example 118-1, N-[2-(7-Bromo-1,3,4,5-tetrahydro-2H-2-benzazepin-2-yl)-6-chloroquinolin-4-yl]ethane-1,2-diamine] the EC50 was 1.98 µM. For Cc1ccc2nc(N3CCS(=O)(=O)c4ccccc4C3)cc(C)c2c1 [Example 99, 4-(4,6-Dimethylquinolin-2-yl)-2,3,4,5-tetrahydro-1,4-benzothiazepine 1,1-dioxide], the EC50 was 3 µM. Cc1ccc2nc(N3CCS(=O)(=O)c4ccc(N5CCN(C(C)C)CC5)cc4C3)cc(NCC3(N)COC3)c2c1 [Example 33-2, N-[(3-Aminooxetan-3-yl)methyl]-2-{1,1-dioxido-7-[4-(propan-2-yl)piperazin-1-yl]-2,3-dihydro-1,4-benzothiazepin-4(5H)-yl}-6-methylquinolin-4-amine] gave an EC50 of 0.627 µM. Molecule Cc1ccc2nc(N3CCS(=O)(=O)c4ccccc4C3)cc(NC(=O)c3cccnc3)c2c1 [Example 47-4, N-[2-(1,1-Dioxido-2,3-dihydro-1,4-benzothiazepin-4(5H)-yl)-6-methylquinolin-4-yl]pyridine-3-carboxamide] has an EC50 of 0.993 µM. Molecule Cc1ccc2nc(N3CCS(=O)(=O)c4cc(F)ccc4C3)cc(NCC3(CN)COC3)c2c1 [Example 3-1, N-{[3-(Aminomethyl)oxetan-3-yl]methyl}-2-(8-fluoro-1,1-dioxido-2,3-dihydro-1,4-benzothiazepin-4(5H)-yl)-6-methylquinolin-4-amine] has an EC50 of 0.006 µM. NC1CCN(c2cc(N3CCS(=O)(=O)c4ccccc4C3)nc3ccncc23)C1 (centres unmarked) [Example 9-28, 1-[2-(1,1-Dioxido-2,3-dihydro-1,4-benzothiazepin-4(5H)-yl)-1,6-naphthyridin-4-yl]pyrrolidin-3-amine] showed an EC50 of 0.003 µM. In the case of Cc1ccc2nc(N3CCS(=O)(=O)c4ccccc4C3)cc(NCCN3CCCCC3)c2c1 [Example 9-6, 2-(1,1-Dioxido-2,3-dihydro-1,4-benzothiazepin-4(5H)-yl)-6-methyl-N-[2-(piperidin-1-yl)ethyl]quinolin-4-amine], the EC50 is reported as 0.275 µM. Cc1ccc2nc(N3CCS(=O)(=O)c4ccccc4C3)cc(NC3CCNCC3)c2c1 [Example 3-39, 2-(1,1-Dioxido-2,3-dihydro-1,4-benzothiazepin-4(5H)-yl)-6-methyl-N-(piperidin-4-yl)quinolin-4-amine] was tested, and the EC50 was 0.03 µM. Molecule Cc1ccc2nc(N3CCS(=O)(=O)c4ccccc4C3)cc(NC3CCNC3)c2c1 (centres unmarked) [Example 21-4, 2-(1,1-Dioxido-2,3-dihydro-1,4-benzothiazepin-4(5H)-yl)-6-methyl-N-(pyrrolidin-3-yl)quinolin-4-amine] has an EC50 of 0.004 µM. With Cc1ccc2nc(N3CCS(=O)(=O)c4ccccc4C3)cc(NCC(O)CC(=O)O)c2c1 (centres unmarked) [Example 11-3, 4-{[2-(1,1-Dioxido-2,3-dihydro-1,4-benzothiazepin-4(5H)-yl)-6-methylquinolin-4-yl]amino}-3-hydroxybutanoic acid] the EC50 was 0.922 µM. Work on Cc1ccc2nc(N3CCS(=O)(=O)c4ccccc4C3)cc(NCC(C)(O)CN)c2c1 (centres unmarked) [Example 11-4, 1-Amino-3-{[2-(1,1-dioxido-2,3-dihydro-1,4-benzothiazepin-4(5H)-yl)-6-methylquinolin-4-yl]amino}-2-methylpropan-2-ol] yielded an EC50 of 0.004 µM. Cc1ccc2nc(N3CCS(=O)(=O)c4ccccc4C3)nc(NC3CCNC3)c2c1 (centres unmarked) [Example 135-2, 2-(1,1-Dioxido-2,3-dihydro-1,4-benzothiazepin-4(5H)-yl)-6-methyl-N-(pyrrolidin-3-yl)quinazolin-4-amine] showed an EC50 of 0.018 µM. Work on Cc1ccc2nc(N3CCS(=O)(=O)c4ccccc4C3)cc(NCC(F)(F)C(F)(F)CN)c2c1 [Example 3-43, N-[2-(1,1-Dioxido-2,3-dihydro-1,4-benzothiazepin-4(5H)-yl)-6-methylquinolin-4-yl]-2,2,3,3-tetrafluorobutane-1,4-diamine] yielded an EC50 of 2.39 µM. N[C@@H]1CN(c2cc(N3CCS(=O)(=O)c4ccccc4C3)nc3ccc(Cl)cc23)C[C@H]1O (relative stereo) [Example 19-6, trans-4-Amino-1-[6-chloro-2-(1,1-dioxido-2,3-dihydro-1,4-benzothiazepin-4(5 H)-yl)quinolin-4-yl]pyrrolidin-3-ol] showed an EC50 of 0.054 µM. CN(C)CCNc1cc(N2CCCc3ccccc3C2)nc2ccccc12 [Example 118-22, N,N-Dimethyl-N′-[2-(1,3,4,5-tetrahydro-2H-2-benzazepin-2-yl)quinolin-4-yl]ethane-1,2-diamine] was tested, and the EC50 was 2.23 µM. With Cc1ccc2nc(N3CCC(F)(F)c4ccccc4C3)cc(N3CCNCC3)c2c1 [Example 111-1, 5,5-Difluoro-2-[6-methyl-4-(piperazin-1-yl)quinolin-2-yl]-2,3,4,5-tetrahydro-1H-2-benzazepine] the EC50 was 2.01 µM. With COc1ccc2c(c1)S(=O)(=O)CCN(c1cc(NCC3(CN)COC3)c3cc(Cl)ccc3n1)C2 [Example 3-14, N-{[3-(Aminomethyl)oxetan-3-yl]methyl}-6-chloro-2-(8-methoxy-1,1-dioxido-2,3-dihydro-1,4-benzothiazepin-4(5H)-yl)quinolin-4-amine] the EC50 was 0.017 µM. Molecule Cc1ccc2nc(N3CCC(F)(F)c4ccccc4C3)nc(NCC3(N)COC3)c2c1 [Example 116-1, N-[(3-Aminooxetan-3-yl)methyl]-2-(5,5-difluoro-1,3,4,5-tetrahydro-2H-2-benzazepin-2-yl)-6-methylquinazolin-4-amine] has an EC50 of 0.005 µM. With Cc1ccc2nc(N3CCCc4ccccc4C3)cc(NCCN)c2c1 [Example 118-3, N-[6-Methyl-2-(1,3,4,5-tetrahydro-2H-2-benzazepin-2-yl)quinolin-4-yl]ethane-1,2 diamine] the EC50 was 0.063 µM. With Cc1ccc2nc(N3CC[S+]([O-])c4ccccc4C3)nc(NCCCN)c2c1 (centres unmarked) [Example 56-6, N-[6-Methyl-2-(1-oxido-2,3-dihydro-1,4-benzothiazepin-4(5H)-yl)quinazolin-4-yl]propane-1,3-diamine] the EC50 was 0.002 µM. Cc1ccc2nc(N3Cc4ccccc4S(=O)(=O)C(C)C3)cc(NCCN)c2c1 (centres unmarked) [Example 69-1, N-[6-Methyl-2-(2-methyl-1,1-dioxido-2,3-dihydro-1,4-benzothiazepin-4(5H)-yl)quinolin-4-yl]ethane-1,2-diamine] showed an EC50 of 0.007 µM. Cc1ccc2nc(N3CCC(F)(F)c4ccccc4C3)cc(NCC(C)N)c2c1 (centres unmarked) [Example 110-8, N^˜1^˜-[2-(5,5-Difluoro-1,3,4,5-tetrahydro-2H-2-benzazepin-2-yl)-6-methylquinolin-4-yl]propane-1,2-diamine] gave an EC50 of 0.081 µM. Molecule CC(C)(N)CNc1cc(N2CCS(=O)(=O)c3ccccc3C2)nc2ccccc12 [Example 5-4, N˜1˜-[2-(1,1-Dioxido-2,3-dihydro-1,4-benzothiazepin-4(5H)-yl)quinolin-4-yl]-2-methylpropane-1,2-diamine] has an EC50 of 0.326 µM. NCCNc1cc(N2CCCc3ccccc3C2)nc2ccc(F)cc12 [Example 118-21, N-[6-Fluoro-2-(1,3,4,5-tetrahydro-2H-2-benzazepin-2-yl)quinolin-4-yl]ethane-1,2-diamine] showed an EC50 of 1.38 µM.
